# Results published in patent US20220119376A1, “TRICYCLIC COMPOUNDS ACTING ON CRBN PROTEINS” (CHIA TAI TIANQING PHARMACEUTICAL GROUP CO., LTD., priority 2018, published 2022).
# Counter-ions that a name gives are not always drawn.
# Tests used:
# MM.1S = assay: Antiproliferative effect in multiple myeloma cell line MM.1S (CellTiter-Glo); type: cell-based; settings: Homo sapiens, MM1.S, 120 h, MM.1S cells, 5 days of compound co-incubation
# Description: (§1) Periodical passaging was performed, and cells in logarithmic growth phase were taken for plating. • (1) Cells were stained with trypan blue and viable cells were counted. • (2) The cell concentration was adjusted to an appropriate level. [table] • (3) 90 μL of cell suspension was added to each well in the culture plate and cell-free medium was added to the blank control wells according to the table above. • (4) The culture plate was incubated overnight in an incubator at 37° C./5% CO2 and 100% relative humidity. […] It was prepared freshly prior to use. […] After the compound or DMSO was added, the mixture was pipetted and mixed well. […] 10 μL of DMSO-cell culture mixture was added to the vehicle control and blank control wells. […] The following procedure was performed according to the instructions of Promega CellTiter-Glo luminescence cell viability assay kit (Promega-G7573). […] The cell plate was wrapped with aluminum foil to keep out of light. (7) The plate was shaken on an orbital shaker for 2 min to induce cell lysis. (8) The culture plate was placed at room temperature for 10 min to stabilize the luminescence signals. (9) The luminescence signals were detected on 2104 EnVision plate reader. […] Inhibition rates of compounds at different concentrations were calculated in Excel, followed by plotting the inhibition curves and calculating relevant parameters including minimum inhibition rate (%), maximum inhibition rate (%) and IC50 using GraphPad Prism software.
# NCI-H929 = assay: Antiproliferative effect in myeloma cell line NCI-H929 (CellTiter-Glo); type: cell-based; settings: Homo sapiens, 120 h, NCI-H929 cells, 5 days of compound co-incubation
# Description: as §1
# [1] = Pharmacokinetic evaluation of compounds in rats; type: in vivo, SD male rats; settings: for clearance / half-life / bioavailability: male, Sprague Dawley, rat, plasma; for bioavailability: oral, intragastric administration 10 mg/kg vs intravenous 2 mg/kg, read-out: Bioavailability F
# Text: (§2) The test animals in the study were SD male rats, and the LC/MS/MS method was used to quantitatively determine the drug concentration in the plasma of the rats at different time points after intravenous injection or oral administration of the test compounds and the reference compound, thus evaluating the pharmacokinetic characteristics of the test drugs in the rats.
# Sprague Dawley (SD) rats (male, 200-300 g, 7-10 weeks old, Beijing Vital River or Shanghai SLAC).
# (§3) Clear solution of the test compound was injected into SD rats (overnight fasting) via the tail vein or administered intragastrically to SD rats (overnight fasting). For intravenous injection, 200 μL of blood was each collected by jugular vein puncture at 0 h (before injection) and 0.0833 h, 0.25 h, 0.5 h, 1 h, 2 h, 4 h, 6 h, 8 h and 24 h (after injection), and then placed in an anticoagulation tube added with EDTA-K2 (Jiangsu KANGJIAN Medical Apparatus Co., Ltd.), and the mixture was thoroughly vortex-mixed at 4° C. and centrifuged at 13000 rpm for 10 min; for intragastric administration, blood was collected by jugular veinpuncture at 0 h (before administration) and 0.5 h, 1 h, 2 h, 4 h, 6 h, 8 h and 24 h (after administration), and then placed in an anticoagulation tube added with EDTA-K2 (Jiangsu KANGJIAN Medical Apparatus Co., Ltd.), and the mixture was thoroughly vortex-mixed and centrifuged at 13000 rpm for 10 min. The plasma concentration was measured by LC-MS/MS method, and the relevant pharmacokinetic parameters were calculated by WinNonlin™ Version 6.3 (Pharsight, Mountain View, Calif.) pharmacokinetic software using non-compartmental model linear logarithmic trapezoid method.
# [2] = test system: human myeloma MM.1S cells; assay: In vivo pharmacodynamic study in subcutaneous xenograft tumor CB-17 SCID model of human myeloma MM.1S cells; design: species or system CB-17 SCID mice; settings: for Tumor volume (Day 0): Day 0 (baseline at grouping), 5 mg/kg oral twice daily; for Tumor volume (Day 24) / TGI (Day 24): Day 24, 5 mg/kg oral twice daily; for TGI (Day 24): tumor growth inhibition vs vehicle control
# Description: Cell culturing: human multiple myeloma cells MM.1S (ATCC® CRL-2974™) were cultured in vitro, in a semi-suspension manner, with an ATCC-formulated RPMI-1640 medium containing 10% fetal calf serum, 100 U/mL penicillin and 100 μg/mL streptomycin in an incubator at 37° C./5% CO2. Passages were performed twice a week.
# At a required number, the cells were taken, counted and inoculated.
# Animals: CB-17 SCID mice, female, 6-8 weeks old, weight of 18-20 g.
# 0.2 mL (5×10^6 cells) of MM.1S cells (along with matrigel in a volume ratio of 1:1) was subcutaneously inoculated on the right back of each mouse, and the mice were divided into groups for administration after the mean tumor volume was approximately 130 mm^3. Seven days constitute an administration cycle, twice daily with a 12 h interval, and the test compound was orally administered for a total of four cycles. Test compounds WX009 and WX023 were administered at a dose of 5 mg/kg, tumor volume was measured twice weekly with a two-dimensional caliper, and the volume was measured in cubic millimeters and calculated according to the following formula: V=0.5 a×b2 where a and b are the long and short diameters, respectively, of the tumor. Anti-tumor efficacy was determined by dividing the mean tumor increase volume of compound-treated animals by the mean tumor increase volume of untreated animals.
# [3] = Pharmacokinetic evaluation of compounds in mice; settings: male, C57BL, mouse, in vivo
# Text: as §2, with “C57BL” for “SD”, “mice,” for “rats,”, “mice” for “rats”, “mice.” for “rats.”
# C57Balb/C (C57) mice (male, 20-30 g, 7-10 weeks old, Beijing Vital River or Shanghai SLAC).
# as §3, with “Clear or suspended” for “Clear”, “C57 mice” for “SD rats”, “vein puncture” for “veinpuncture”
# [4] = intragastric administration 10 mg/kg
smiles,measurement,setting,value
O=C1CCC(c2noc3ccc4cc(OCCNC5CCOCC5)ccc4c23)C(=O)N1 (stereo not drawn) [Hydrochloride of WX039],IC50,MM.1S,2.6 nM
O=C1CCC(c2noc3ccc4ccccc4c23)C(=O)N1 (stereo not drawn) [WX004],IC50,MM.1S,6.6 nM
same,IC50,NCI-H929,21.2 nM
O=C1CCC(c2noc3cc4occc4cc23)C(=O)N1 (stereo not drawn) [WX005],IC50,NCI-H929,19.1 nM
O=C1CCC(c2noc3ccc4ccoc4c23)C(=O)N1 (stereo not drawn) [WX006],IC50,MM.1S,2 nM
O=C1CCC(c2noc3ccc4[nH]ccc4c23)C(=O)N1 (stereo not drawn) [WX009],Area under plasma concentration-time curve (0-inf),[1]; [4],26.34 µM·h
same,Peak concentration,[1]; [4],12.75 µM
same,Time to peak,[1]; [4],0.50 h
same,Area under plasma concentration-time curve (0-inf),[1]; intravenous injection 2 mg/kg,7.92 µM·h
same,clearance,[1]; intravenous injection 2 mg/kg,15.9 mL/min/kg
same,half-life,[1]; intravenous injection 2 mg/kg,0.9 h
same,bioavailability,[1],66.5%
same,Tumor volume (Day 0),[2],131 ± 12 mm^3
same,Tumor volume (Day 24),[2],14 ± 5 mm^3
same,TGI (Day 24),[2],105%
same,Area under plasma concentration-time curve (0-inf),"[3]; iv, 2 mg/kg",5.34 µM·h
same,Area under plasma concentration-time curve (0-inf),"[3]; po, 10 mg/kg",12.29 µM·h
same,Peak concentration,"[3]; po, 10 mg/kg",10.52 µM
same,Time to peak,"[3]; po, 10 mg/kg",0.25 h
same,half-life,"[3]; mice, intravenous injection 2 mg/kg, read-out: Half life (converted)",0.89 h
same,clearance,"[3]; mice, intravenous injection 2 mg/kg, read-out: Plasma clearance",23.2 mL/min/kg
same,bioavailability,"[3]; mice, oral administration 10 mg/kg vs intravenous 2 mg/kg, read-out: Bioavailability F",46.1%
COc1ccc2c(ccc3onc(C4CCC(=O)NC4=O)c32)c1 (stereo not drawn) [WX013],IC50,MM.1S,4.5 nM
CN(C)CCOc1ccc2c(ccc3onc(C4CCC(=O)NC4=O)c32)c1 (stereo not drawn) [WX015],IC50,MM.1S,3.8 nM
O=C1CCC(c2noc3ccc4cc(OCCN5CCOCC5)ccc4c23)C(=O)N1 (stereo not drawn) [WX023],IC50,MM.1S,6.4 nM
same,Area under plasma concentration-time curve (0-inf),[1]; [4],19.69 µM·h
same,Peak concentration,[1]; [4],3.08 µM
same,Time to peak,[1]; [4],0.75 h
same,Area under plasma concentration-time curve (0-inf),[1]; intravenous injection 2 mg/kg,3.76 µM·h
same,clearance,[1]; intravenous injection 2 mg/kg,21.7 mL/min/kg
same,half-life,[1]; intravenous injection 2 mg/kg,1.24 h
same,bioavailability,[1],73.7%
same,Tumor volume (Day 0),[2],130 ± 8 mm^3
same,Tumor volume (Day 24),[2],15 ± 4 mm^3
same,TGI (Day 24),[2],105%
same,IC50,NCI-H929,10.3 nM
same,bioavailability,[3],100%
same,Area under plasma concentration-time curve (0-inf),"[3]; iv, 2 mg/kg",6.87 µM·h
same,clearance,"[3]; iv, 2 mg/kg",11.8 mL/min/kg
same,half-life,"[3]; iv, 2 mg/kg",3.37 h
same,Area under plasma concentration-time curve (0-inf),"[3]; po, 10 mg/kg",34.40 µM·h
same,Peak concentration,"[3]; po, 10 mg/kg",17.50 µM
same,Time to peak,"[3]; po, 10 mg/kg",0.25 h
O=C1CCC(c2noc3ccc4cc(OCCN5CCCC5)ccc4c23)C(=O)N1 (stereo not drawn) [WX027],IC50,MM.1S,3.4 nM
O=C1CCC(c2noc3ccc4cc(CO)ccc4c23)C(=O)N1 (stereo not drawn) [WX061],IC50,MM.1S,3.4 nM
